Results published in PMC11695783 (Frontiers in Pharmacology, 2024).
Several values for one entry are separate records, joined by “and”; a condition that tells them apart may be missing. Identical values can stand only once.

How the values were obtained:
Mycoplasma pneumoniae = experiment: In vivo pharmacodynamic study: Mycoplasma pneumoniae loads in BALF of infected mice; set-up: species or system BALB/c mice; conditions: for MPcounts in BALF (AV): group AV; for MPcounts in BALF: individual mice
Method: (§1) Adult BALB/c mice (20–22 g) were divided into a control group, a positive group, and compound 16C groups at low (20 mg/kg), medium (40 mg/kg), and high-dose (80 mg/kg) levels and oral and intramuscular tiamulin treatment groups (40 mg/kg). We formulated the above dose range based on the dose at which tiamulin was approved for injection (10–20 mg/kg) and the dose previously reported (45 mg/kg) ([EMA, 1999]; [Xiao et al., 2016]). In summary, we selected similar doses for compound 16C in vivo study. 40 mg/kg was used as an intermediate value, one-half of it as a low dose, and two times of it as a high dose. To prepare the challenge solution, logarithmic phase culture suspensions were centrifuged at 1700 g for 10 min, and the pellets were suspended in sterile PBS to obtain 1 × 10^9 CFU/mL. Before the challenge, mice were anesthetized with tribromoethanol (250 mg/kg, IP). Mice in the control groups were intratracheally inoculated with sterile PBS, whereas mice in the other groups were intratracheally challenged with 50 μL (1 × 10^9 CFU/mL) M. pneumoniae suspension once a day for 3 days. Compound 16C and tiamulin (tiamulin-IM group) dissolved using the method mentioned in pharmacokinetic studies, and the tiamulin fumarate soluble powder was dissolved in ddH2O for oral administration. After the final challenge, antibiotics were administered at low, medium, and high-dose levels (see above) at 10 a.m. and 10 p.m. daily for 4 consecutive days. Normal saline containing 5% DMSO and 5% Tween-80 was administered as control and positive groups by thigh intramuscular injection. To compare the efficacy of compound 16C and tiamulin under the same route of administration, we used the original tiamulin for intramuscular administration in the same formulation. On the other hand, tiamulin fumarate soluble powder, approved for oral administration to treat animal mycoplasma diseases in China, was administered to mice by gavage. Based on a clinical study of lefamulin in community-acquired bacterial pneumonia (CABP), subjects were administered twice a day and the 96 ± 24 h of starting treatment was an essential point for early clinical response (ECR) ([Paukner et al., 2022]). We therefore stopped treatment at 96 h and sampled at 192 h to explore whether the disease worsened after cessation of treatment. Bronchoalveolar lavage fluid (BALF) and lungs were collected at 0, 96, 192 h (Samples of 0 h were collected before starting treatment, and mice were fed ad libitum without drug treatment during 96–192 h) after the first dose, BALF for cytokine and cytological analysis and lung for histopathological evaluation.
(§2) Bronchoalveolar lavage was performed according to a standardized method ([Van Hoecke et al., 2017]). BALF was obtained following infusion of 0.5 mL PBS via tracheal cannulation into the lung twice (total 1 mL), and 200 µL was used for mycoplasma counts. The remaining BALF was centrifuged at 300 g for 10 min to separate the debris. The supernatants were stored at −80°C, and the debris was resuspended in the same volume of PBS containing red blood cell lysis buffer. A hemocytometer was used to count total cell numbers in BALF, and cell smears (Diff-Quik staining) were prepared to calculate the percentages of neutrophils, macrophages, and lymphocytes. IFN-γ, TNF-α, and CXCL1 levels in BALF samples were assessed using commercial ELISA kits using guidelines recommended by the manufacturer (Elabscience, Wuhan, China). Parallel data for each experimental group at each time point were obtained from six different mice.

[1] = tested on: inflammatory cells in BALF (neutrophils, macrophages, lymphocytes); experiment: Inflammatory cell analysis in BALF of M. pneumoniae-infected mice; type: in vivo, BALB/c mice
Method: as §1, §2

[2] = compound 16C 20 mg/kg IM, 192 h
[3] = compound 16C 40 mg/kg IM, 192 h
[4] = compound 16C 80 mg/kg IM, 192 h

C=CC1(C)CC(OC(=O)CSc2ccc(NC(=O)Cc3ccc([N+](=O)[O-])cc3)cc2)C2(C)C(C)CCC3(CCC(=O)C32)C(C)C1O (stereo not drawn) [compound 16C, 22–((4-((4-nitrophenyl)acetamido)phenyl)thio)deoxypleuromutilin]
microbial reduction in BALF (Mycoplasma pneumoniae; compound 16C 20 mg/kg IM twice daily 4 d, 96 h): 1.40 log10 CFU/mL
MPcounts in BALF (AV) (Mycoplasma pneumoniae; compound 16C 20 mg/kg IM, 96 h): 4.601 Log10CFU/mL
MPcounts in BALF (Mycoplasma pneumoniae; compound 16C 20 mg/kg IM, 96 h): 5.04 Log10CFU/mL and 4.682 Log10CFU/mL and 3.8451 Log10CFU/mL and 4.709 Log10CFU/mL and 4.293 Log10CFU/mL and 5.039 Log10CFU/mL
MPcounts in BALF (AV) (Mycoplasma pneumoniae; [2]): 3.598 Log10CFU/mL
MPcounts in BALF (Mycoplasma pneumoniae; [2]): 3.747 Log10CFU/mL and 3.757 Log10CFU/mL and 3.482 Log10CFU/mL and 3.599 Log10CFU/mL and 3.64 Log10CFU/mL and 3.366 Log10CFU/mL
microbial reduction in BALF (Mycoplasma pneumoniae; compound 16C 40 mg/kg IM twice daily 4 d, 96 h): 2.02 log10 CFU/mL
MPcounts in BALF (AV) (Mycoplasma pneumoniae; compound 16C 40 mg/kg IM, 96 h): 3.896 Log10CFU/mL
MPcounts in BALF (Mycoplasma pneumoniae; compound 16C 40 mg/kg IM, 96 h): 4.213 Log10CFU/mL and 4.174 Log10CFU/mL and 3.6574 Log10CFU/mL and 4.285 Log10CFU/mL and 3.708 Log10CFU/mL and 3.341 Log10CFU/mL
MPcounts in BALF (AV) (Mycoplasma pneumoniae; [3]): 3.662 Log10CFU/mL
MPcounts in BALF (Mycoplasma pneumoniae; [3]): 3.675 Log10CFU/mL and 3.607 Log10CFU/mL and 3.633 Log10CFU/mL and 3.784 Log10CFU/mL and 3.322 Log10CFU/mL and 3.954 Log10CFU/mL
microbial reduction in BALF (Mycoplasma pneumoniae; compound 16C 80 mg/kg IM twice daily 4 d, 96 h): 2.68 log10 CFU/mL
microbial reduction in BALF (Mycoplasma pneumoniae; compound 16C 80 mg/kg IM twice daily 4 d, 192 h): 2.65 log10 CFU/mL
MPcounts in BALF (AV) (Mycoplasma pneumoniae; compound 16C 80 mg/kg IM, 96 h): 3.141 Log10CFU/mL
MPcounts in BALF (Mycoplasma pneumoniae; compound 16C 80 mg/kg IM, 96 h): 3.314 Log10CFU/mL and 3.255 Log10CFU/mL and 3.244 Log10CFU/mL and 3.15 Log10CFU/mL and 2.656 Log10CFU/mL and 3.223 Log10CFU/mL
MPcounts in BALF (AV) (Mycoplasma pneumoniae; [4]): 3.173 Log10CFU/mL
MPcounts in BALF (Mycoplasma pneumoniae; [4]): 3.05 Log10CFU/mL and 3.185 Log10CFU/mL and 3.04 Log10CFU/mL and 3.438 Log10CFU/mL and 3.295 Log10CFU/mL and 3.0308 Log10CFU/mL
cell counts, total (AV) ([1]; 20mg/kg, time 0): 48.3833 n*10^5
cell counts, 中 (neutrophils) (AV) ([1]; 20mg/kg, time 0): 42.2036 n*10^5
cell counts, 巨 (macrophages) (AV) ([1]; 20mg/kg, time 0): 5.64 n*10^5
cell counts, 淋 (lymphocytes) (AV) ([1]; 20mg/kg, time 0): 0.5399 n*10^5
cell counts, total (AV) ([1]; 20mg/kg, time 96): 8.192 n*10^5
cell counts, 中 (neutrophils) (AV) ([1]; 20mg/kg, time 96): 1.83 n*10^5
cell counts, 巨 (macrophages) (AV) ([1]; 20mg/kg, time 96): 3.157 n*10^5
cell counts, 淋 (lymphocytes) (AV) ([1]; 20mg/kg, time 96): 3.205 n*10^5
cell counts, total (AV) ([1]; 20mg/kg, time 192): 2.917 n*10^5
cell counts, 中 (neutrophils) (AV) ([1]; 20mg/kg, time 192): 1.486 n*10^5
cell counts, 巨 (macrophages) (AV) ([1]; 20mg/kg, time 192): 0.8746 n*10^5
cell counts, 淋 (lymphocytes) (AV) ([1]; 20mg/kg, time 192): 0.5558 n*10^5
cell counts, total (AV) ([1]; 40mg/kg, time 0): 47.0528 n*10^5
cell counts, 中 (neutrophils) (AV) ([1]; 40mg/kg, time 0): 40.6758 n*10^5
cell counts, 巨 (macrophages) (AV) ([1]; 40mg/kg, time 0): 4.508 n*10^5
cell counts, 淋 (lymphocytes) (AV) ([1]; 40mg/kg, time 0): 1.869 n*10^5
cell counts, total (AV) ([1]; 40mg/kg, time 96): 7.083 n*10^5
cell counts, 中 (neutrophils) (AV) ([1]; 40mg/kg, time 96): 2.373 n*10^5
cell counts, 巨 (macrophages) (AV) ([1]; 40mg/kg, time 96): 2.398 n*10^5
cell counts, 淋 (lymphocytes) (AV) ([1]; 40mg/kg, time 96): 2.312 n*10^5
cell counts, total (AV) ([1]; 40mg/kg, time 192): 3.683 n*10^5
cell counts, 中 (neutrophils) (AV) ([1]; 40mg/kg, time 192): 1.76 n*10^5
cell counts, 巨 (macrophages) (AV) ([1]; 40mg/kg, time 192): 0.9141 n*10^5
